Test results as given in paper PMC11882969 (Nature Communications, 2025).
Several values for one entry are separate records, joined by “and”; a condition that tells them apart may be missing. Equal entries are not always repeated.

What was measured:
CB1 (rCB1) = CB1 (rCB1) (Rattus norvegicus, UniProt P20272); assay: Single-point radioligand displacement screen; type: binding; settings: 10 µM, 1 µM or 300 nM by cell colour (not visible)
hCB1 = hCB1 (Homo sapiens, UniProt P21554); assay: bioSensAll ebBRET signaling profiling, hCB1; type: cell-based; design: host or cells: HEK293SL cells, transient PEI transfection; settings: for Gi1 hCB1 response: Gi1 biosensor; for Gi1 hCB1 / GoB hCB1: single replicate values, FigS6a
Sequence of hCB1 (P21554 whole entry): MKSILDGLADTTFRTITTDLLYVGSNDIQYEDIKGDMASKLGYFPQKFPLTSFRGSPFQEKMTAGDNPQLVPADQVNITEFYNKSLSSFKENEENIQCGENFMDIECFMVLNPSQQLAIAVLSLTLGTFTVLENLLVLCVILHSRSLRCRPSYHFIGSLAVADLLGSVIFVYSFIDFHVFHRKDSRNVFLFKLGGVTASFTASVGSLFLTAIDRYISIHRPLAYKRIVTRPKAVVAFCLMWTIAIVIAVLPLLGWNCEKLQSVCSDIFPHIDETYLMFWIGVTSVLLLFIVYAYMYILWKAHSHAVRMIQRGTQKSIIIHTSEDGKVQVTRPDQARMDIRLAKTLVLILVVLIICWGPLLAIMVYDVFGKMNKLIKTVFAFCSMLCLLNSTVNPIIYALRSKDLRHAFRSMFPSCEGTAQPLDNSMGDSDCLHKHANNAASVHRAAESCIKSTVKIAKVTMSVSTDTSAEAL

Sequence of CB1 (rCB1) (P20272 whole entry): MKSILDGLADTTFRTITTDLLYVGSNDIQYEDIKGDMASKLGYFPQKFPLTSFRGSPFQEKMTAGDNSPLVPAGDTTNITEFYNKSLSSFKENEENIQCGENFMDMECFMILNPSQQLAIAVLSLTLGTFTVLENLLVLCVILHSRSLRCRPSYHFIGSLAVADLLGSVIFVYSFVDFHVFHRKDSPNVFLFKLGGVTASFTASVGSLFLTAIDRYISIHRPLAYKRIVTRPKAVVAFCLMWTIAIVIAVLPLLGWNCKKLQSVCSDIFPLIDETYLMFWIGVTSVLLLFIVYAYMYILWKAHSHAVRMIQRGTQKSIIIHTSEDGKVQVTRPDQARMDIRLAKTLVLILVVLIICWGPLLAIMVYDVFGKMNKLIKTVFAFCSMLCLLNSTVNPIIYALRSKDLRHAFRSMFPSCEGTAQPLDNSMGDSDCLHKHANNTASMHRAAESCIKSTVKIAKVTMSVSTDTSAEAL

SMILES: COC(=O)[C@@H]1[C@@H]2CCC[C@@H]2CN1C(=O)c1cc(C)n(-c2cccc(Cl)c2)n1 (racemic) [‘10010]
- % 1H-CP-55,940 displacement (mean) from single point screen (CB1 (rCB1)): 33.86%
- Gi1 hCB1 response (hCB1; Log [Compound] (M) -4.22186): 123.556
- Gi1 hCB1 response (hCB1; Log [Compound] (M) -4.63927): 104.286
- Gi1 hCB1 response (hCB1; Log [Compound] (M) -5.05788): 90.0738
- Gi1 hCB1 response (hCB1; Log [Compound] (M) -5.47381): 84.2546
- Gi1 hCB1 response (hCB1; Log [Compound] (M) -5.89285): 64.3799
- Gi1 hCB1 response (hCB1; Log [Compound] (M) -6.31878): 42.6475
- Gi1 hCB1 response (hCB1; Log [Compound] (M) -6.72585): 30.3601
- Gi1 hCB1 response (hCB1; Log [Compound] (M) -7.14267): 11.5597
- Gi1 hCB1 response (hCB1; Log [Compound] (M) -7.55284): 0.9285
- Gi1 hCB1 response (hCB1; Log [Compound] (M) -8): 10.9106
- Gi1 hCB1 response (hCB1; Log [Compound] (M) -8.22186): -8.695
- Gi1 hCB1 response (hCB1; Log [Compound] (M) -8.39794): 0.6152
- Gi1 hCB1 response (hCB1; Log [Compound] (M) -8.68787): -2.362
- Gi1 hCB1 response (hCB1; Log [Compound] (M) -9.61989): -10.5755
- Gi1 hCB1 response (hCB1; Log [Compound] (M) -10.0969): -9.255
- Gi1 hCB1 response (hCB1; Log [Compound] (M) -10.5529): -7.5988
- Gi1 hCB1 response (hCB1; Log [Compound] (M) -11.0177): -15.9247
- Gi1 hCB1 response (hCB1; Log [Compound] (M) -11.4949): -7.532
- Gi1 hCB1 response (hCB1; Log [Compound] (M) -11.9208): -15.2309
- Gi1 hCB1 response (hCB1; Log [Compound] (M) -12.3979): -21.4305
- Gi1 hCB1 response (hCB1; Log [Compound] (M) -12.8861): 1.8014
- Gi1 hCB1 response (hCB1; Log [Compound] (M) -13, individual replicate values): -0.8396 and -0.9068
- Gi1 hCB1 (hCB1; Log [Compound] (M) -4.22186): 75.9694
- GoB hCB1 (hCB1; Log [Compound] (M) -4.22186): 69.5491
- Gi1 hCB1 (hCB1; Log [Compound] (M) -4.63927): 67.922
- GoB hCB1 (hCB1; Log [Compound] (M) -4.63927): 64.6397
- Gi1 hCB1 (hCB1; Log [Compound] (M) -5.05788): 66.8428
- GoB hCB1 (hCB1; Log [Compound] (M) -5.05788): 63.4708
- Gi1 hCB1 (hCB1; Log [Compound] (M) -5.47381): 60.337
- GoB hCB1 (hCB1; Log [Compound] (M) -5.47381): 61.9062
- Gi1 hCB1 (hCB1; Log [Compound] (M) -5.89285): 45.2596
- GoB hCB1 (hCB1; Log [Compound] (M) -5.89285): 36.262
- Gi1 hCB1 (hCB1; Log [Compound] (M) -6.31878): 29.1955
- GoB hCB1 (hCB1; Log [Compound] (M) -6.31878): 27.8098
- Gi1 hCB1 (hCB1; Log [Compound] (M) -6.72585): 16.0606
- GoB hCB1 (hCB1; Log [Compound] (M) -6.72585): 11.4989
- Gi1 hCB1 (hCB1; Log [Compound] (M) -7.14267): 6.117
- GoB hCB1 (hCB1; Log [Compound] (M) -7.14267): 3.514
- Gi1 hCB1 (hCB1; Log [Compound] (M) -7.55284): 3.804
- GoB hCB1 (hCB1; Log [Compound] (M) -7.55284): 2.9568
- Gi1 hCB1 (hCB1; Log [Compound] (M) -8): 3.373
- GoB hCB1 (hCB1; Log [Compound] (M) -8): 0.9427
- Gi1 hCB1 (hCB1; Log [Compound] (M) -8.22186): 2.679
- GoB hCB1 (hCB1; Log [Compound] (M) -8.22186): -4.812
- Gi1 hCB1 (hCB1; Log [Compound] (M) -8.39794): 2.664
- GoB hCB1 (hCB1; Log [Compound] (M) -8.39794): -1.197
- Gi1 hCB1 (hCB1; Log [Compound] (M) -8.68787): 1.0911
- GoB hCB1 (hCB1; Log [Compound] (M) -8.68787): -4.812
- Gi1 hCB1 (hCB1; Log [Compound] (M) -9.15521): 1.8
- GoB hCB1 (hCB1; Log [Compound] (M) -9.15521): -5.028
- Gi1 hCB1 (hCB1; Log [Compound] (M) -9.61989): 0.8444
- GoB hCB1 (hCB1; Log [Compound] (M) -9.61989): -4.38
- Gi1 hCB1 (hCB1; Log [Compound] (M) -10.0969): 1.662
- GoB hCB1 (hCB1; Log [Compound] (M) -10.0969): -4.057
- Gi1 hCB1 (hCB1; Log [Compound] (M) -10.5529): 2.648
- GoB hCB1 (hCB1; Log [Compound] (M) -10.5529): 1.212
